Results published in US8383581B2, “Short-chain peptides as parathyroid hormone (PTH) receptor agonist” (Cadila Healthcare Limited, priority 2009, dated 2013).
Where a SMILES comes first, the peptide text is derived from it. [ ]: non-standard residue; d: D form. ξ: configuration not given here. ξBip(2'-Et-4'-OMe) = CCc1cc(OC)ccc1-c1ccc(CC(N)C(=O)O)cc1; Arg(NO2) = N=C(NCCC[C@H](N)C(=O)O)N[N+](=O)[O-]; ξαMePhe(2,6-F2) = CC(N)(Cc1c(F)cccc1F)C(=O)O; ξαMe(hhPhe) = CC(N)(CCCc1ccccc1)C(=O)O; hArg = N=C(N)NCCCC[C@H](N)C(=O)O; hCit = NC(=O)NCCCC[C@H](N)C(=O)O; Cit = NC(=O)NCCC[C@H](N)C(=O)O; ξhhPhe = NC(CCCc1ccccc1)C(=O)O; NMeV = CN[C@H](C(=O)O)C(C)C; ξαMeNle = CCCCC(C)(N)C(=O)O; Nle = CCCC[C@H](N)C(=O)O; Ac5c = NC1(C(=O)O)CCCC1; Ac3c = NC1(C(=O)O)CC1; Aib = CC(C)(N)C(=O)O

System: ovariectomised (OVX) rats
Assay: In vivo anti-osteoporosis activity testing in OVX rat model (serum calcium, phosphate, bone parameters)
Set-up: species or system Female Wistar Rats
Conditions: po
Source text: c) In Vivo Anti-Osteoporosis Activity Testing in OVX Rat Model: The ovariectomised (OVX) rats were used to study anti-osteoporosis activity of test compounds (short-chain peptides) in vivo. The OVX rats develop osteopenia due to ovarian hormone deficiency. Osteopenia can be detected as early as 14 days post OVX, increase for the next 100 days and then stabilised (Wronski T. J., et al., Calcif. Tissue Int., 43(3), 1988, 179-183). Detailed Study Protocol to Evaluate the Effects of Anabolic Therapy on Bone Markers and Histomorphometry in OVX Animals: 10 to 11 weeks old Female Wistar Rats (150-200 g) were used. The animals were kept in individually ventilated cages in a room with controlled temperature (23°±3° C.), lighting (12:12 h light-dark cycle) and relative humidity (55±10%). Animals had free access to standard rat chow and water. Protocol for use of animals for conducting this study has been reviewed and approved by Institutional Animal Ethics Committee (IAEC). The animals were marked with picric acid for identification and acclimatized to experimental room conditions for 2 days prior to initiation of the study. For the induction of osteoporosis, rats were bilaterally ovariectomised under anesthesia. For Ovariectomy, Incision was made on dorsa-lateral side near lumbar region of animal. After that, ovary was excised and the veins were tied with ligature before removing ovary to prevent blood loss. Then incision was sutured back with ligature. After Bilateral ovariectomy, animals were allowed to rest for 4 weeks. They were then divided into different groups (n=9) based on their body weight. The groups consisted of a no treatment control, PTH as standard and one or two groups of test compounds (short-chain peptides). The treatment was given for the duration of 6 weeks. At the last day of treatment animals were kept overnight in metabolic cages under fasting for the collection of Urine. Next day, blood was collected after 24 hours of last dosing and animals were sacrificed. Changes in biochemical parameters and bone turnover parameters (Increase in serum Calcium and decrease in Phosphate levels, Acid Phosphatase and TRAP) were evaluated in the urine and serum. After sacrificing, intact femur and tibial bones are removed and cleaned from adherent tissues, muscles and tendons; weighed and collected in formal saline (10% formaldehyde solution). Lumbar vertebra (L5) was excised, carefully cleaned and collected in formal saline. Femur, tibia and Lumbar vertebra-5 (L5) were later processed for histomorphometric evaluation (Zhang L., et al., Tohoku J Exp Med., 1998, 186(2), 131-41; Tanizawa T., et al., Toxicol Lett., 1998, 102, 399-403).

## CCCC[C@H](NC(=O)C(C)(Cc1c(F)cccc1F)NC(=O)[C@H](CCC(N)=O)NC(=O)[C@@H](NC(=O)[C@H](CCC(=O)O)NC(=O)C(C)(C)NC(=O)[C@@H](NC(=O)C1(N)CCCC1)C(C)C)[C@@H](C)CC)C(=O)N[C@@H](Cc1c[nH]cn1)C(=O)N[C@@H](CCC(N)=O)C(=O)N[C@@H](CCCNC(N)=O)C(=O)N[C@@H](C)C(=O)N[C@@H](CCCNC(=N)N[N+](=O)[O-])C(=O)NC(C)(Cc1c(F)cccc1F)C(N)=O (stereo partly drawn) [Seq. ID. 407] (H-[Ac5c]V[Aib]EIQ[ξαMePhe(2,6-F2)][Nle]HQ[Cit]A[Arg(NO2)][ξαMePhe(2,6-F2)]-NH2)
0.03 mg/kg
  % decrease in serum PO4 Levels (mg/dl) vs control: 81%
  % increase in serum Ca^2+ Levels (mg/dl) vs control: 77%

## CCCC[C@H](NC(=O)C(C)(Cc1c(F)cccc1F)NC(=O)[C@H](CCC(N)=O)NC(=O)[C@@H](NC(=O)[C@H](CCC(=O)O)NC(=O)C(C)(C)NC(=O)[C@@H](NC(=O)C(C)(C)N)C(C)C)[C@@H](C)CC)C(=O)N[C@@H](Cc1c[nH]cn1)C(=O)N[C@@H](CCC(N)=O)C(=O)N[C@@H](CCCCNC(N)=O)C(=O)N[C@@H](C)C(=O)N[C@@H](CCCNC(=N)N[N+](=O)[O-])C(=O)NC(C)(Cc1c(F)cccc1F)C(N)=O (stereo partly drawn) [Seq. ID. 469] (H-[Aib]V[Aib]EIQ[ξαMePhe(2,6-F2)][Nle]HQ[hCit]A[Arg(NO2)][ξαMePhe(2,6-F2)]-NH2)
0.01 mg/kg
  % decrease in serum PO4 Levels (mg/dl) vs control: 65%
  % increase in serum Ca^2+ Levels (mg/dl) vs control: 43%

## CCCC[C@H](NC(=O)C(C)(Cc1c(F)cccc1F)NC(=O)[C@H](CCC(N)=O)NC(=O)[C@@H](NC(=O)[C@H](CCC(=O)O)NC(=O)C(C)(C)NC(=O)[C@@H](NC(=O)C(C)(C)N)C(C)C)[C@@H](C)CC)C(=O)N[C@@H](Cc1c[nH]cn1)C(=O)N[C@@H](CCC(N)=O)C(=O)N[C@@H](CCCCNC(=N)N)C(=O)N[C@@H](C)C(=O)NC(C)(C)C(=O)NC(Cc1ccc(-c2ccc(OC)cc2CC)cc1)C(=O)NC(CCCc1ccccc1)C(N)=O (stereo partly drawn) [Seq. ID. 814] (H-[Aib]V[Aib]EIQ[ξαMePhe(2,6-F2)][Nle]HQ[hArg]A[Aib][ξBip(2'-Et-4'-OMe)][ξhhPhe]-NH2)
0.02 mg/kg
  % decrease in serum PO4 Levels (mg/dl) vs control: 95%
  % increase in serum Ca^2+ Levels (mg/dl) vs control: 99%

## CCCC[C@H](NC(=O)[C@H](CC(C)C)NC(=O)[C@H](CCC(N)=O)NC(=O)[C@@H](NC(=O)[C@H](CCC(=O)O)NC(=O)C(C)(C)NC(=O)[C@@H](NC(=O)C1(N)CC1)C(C)C)[C@@H](C)CC)C(=O)N[C@@H](Cc1c[nH]cn1)C(=O)N[C@@H](CCC(N)=O)C(=O)N[C@@H](CCCCNC(=N)N)C(=O)N[C@@H](C)C(=O)N[C@@H](CCCCN)C(=O)NC(Cc1ccc(-c2ccc(OC)cc2CC)cc1)C(N)=O (stereo partly drawn) [Seq. ID. 649] (H-[Ac3c]V[Aib]EIQL[Nle]HQ[hArg]AK[ξBip(2'-Et-4'-OMe)]-NH2)
2 mg/kg
  % decrease in serum PO4 Levels (mg/dl) vs control: 82%
  % increase in serum Ca^2+ Levels (mg/dl) vs control: 86%

## CCCC[C@H](NC(=O)C(C)(Cc1c(F)cccc1F)NC(=O)[C@H](CCC(N)=O)NC(=O)[C@@H](NC(=O)[C@H](CCC(=O)O)NC(=O)C(C)(C)NC(=O)[C@@H](NC(=O)C1(N)CCCC1)C(C)C)[C@@H](C)CC)C(=O)N[C@@H](Cc1c[nH]cn1)C(=O)N[C@@H](CCC(N)=O)C(=O)NC(C)(C)C(=O)N[C@@H](C)C(=O)N[C@@H](CCCNC(=N)N[N+](=O)[O-])C(=O)NC(C)(Cc1c(F)cccc1F)C(N)=O (stereo partly drawn) [Seq. ID. 599] (H-[Ac5c]V[Aib]EIQ[ξαMePhe(2,6-F2)][Nle]HQ[Aib]A[Arg(NO2)][ξαMePhe(2,6-F2)]-NH2)
0.03 mg/kg
  % decrease in serum PO4 Levels (mg/dl) vs control: 90%
  % increase in serum Ca^2+ Levels (mg/dl) vs control: 110%

## CCCCC(C)(NC(=O)[C@H](CC(C)C)NC(=O)[C@H](CCC(N)=O)NC(=O)[C@@H](NC(=O)[C@H](CCC(=O)O)NC(=O)C(C)(C)NC(=O)[C@@H](NC(=O)C1(NC(=O)[C@@H](NC)C(C)C)CCCC1)C(C)C)[C@@H](C)CC)C(=O)N[C@@H](Cc1c[nH]cn1)C(=O)N[C@@H](CCC(N)=O)C(=O)N[C@@H](CCCCNC(=N)N)C(=O)N[C@@H](C)C(=O)N[C@@H](CCCCNC(=N)N)C(=O)NC(Cc1ccc(-c2ccc(OC)cc2CC)cc1)C(=O)NC(C)(CCCc1ccccc1)C(N)=O (stereo partly drawn) [Seq. ID. 929] (H-[NMeV][Ac5c]V[Aib]EIQL[ξαMeNle]HQ[hArg]A[hArg][ξBip(2'-Et-4'-OMe)][ξαMe(hhPhe)]-NH2)
2 mg/kg
  % decrease in serum PO4 Levels (mg/dl) vs control: 90%
  % increase in serum Ca^2+ Levels (mg/dl) vs control: 121%
